Measurements as given in US10253002B2, “Compounds and methods of treating infections” (Neoculi Pty Ltd., priority 2013, dated 2019).

Columns and labels:
S. pneumoniae isolates = assay: Disk diffusion susceptibility (CLSI/EUCAST), Example 5; assay type: cell-based, Streptococcus pneumoniae
Procedure: Isolate susceptibility to 12 different antimicrobials (Table 16) was determined by CLSI and European Committee on Antimicrobial Susceptibility Testing (EUCAST) methods. Antimicrobials were selected based upon the CLSI and EUCAST guidelines. Standardised bacterial suspensions were spread onto MHSBA using a sterile cotton swab. Bacterial suspensions from of Streptococcus pneumoniae were standardised to an OD6O0 between 0.08 and 0.1 using a spectrophotometer and then diluted 1:20. Bacterial colonies were taken from an O/N horse blood agar plate. To ensure the purity of the 1:20 bacterial suspension, 50 μL was spread plated onto horse blood agar and incubated O/N at 37° C. with 5% CO2. The CFU was calculated and compared to the initial plate counts. Antibiotic disks (Purchased from Sigma Aldrich) were placed using a disk dispenser (Purchased from Oxoid) according to CLSI standards. MHSBA plates were incubated for 16 h-24 h at 37° C. in 5% CO2. Zones of complete inhibition were measured in triplicate to the nearest millimeter using a ruler on natural light-reflected growth, and the mode was represented as the diameter for each isolate. Pneumococcal isolates were categorised as sensitive, intermediate (I) or resistant (R) by CLSI standards and quality control (QC) ranges (Table 16).

[1] = test system: S. aureus isolates (HA-MRSA, CA-MRSA, methicillin-susceptible staphylococci); assay: Kirby-Bauer disc diffusion resistotyping, Example 4; assay type: cell-based, Staphylococcus aureus; details: for Total isolates resistant (Kirby-Bauer disc diffusion): all isolates (n = 30)
Procedure: Antibiotic-susceptibility profiling of the isolate collection was undertaken using Kirby-Bauer disc diffusion, as recommended by the Clinical and Laboratory Standards Institute (CLSI) on Mueller-Hinton agar. Isolates were grown overnight on SBA at 37° C. Colonies were suspended in physiological saline. Turbidity was adjusted to a 0.5 McFarland standard and suspensions were spread over the medium. Antibiotic discs according to Table 9 below were transferred onto the inoculated medium and analysed after 24 h incubation at 37° C.

[2] = test system: Staphylococcus pseudintermedius isolates (MSSP and MRSP); assay: Disk diffusion and Epsilometer susceptibility testing, Example 6; assay type: cell-based; details: 13 MRSP isolates
[3] = Methicillin-susceptible staphylococci (n = 10)

Compound	disk diffusion zone diameter (S. pneumoniae isolates; A66.1) [mm]	disk diffusion zone diameter (S. pneumoniae isolates; D39) [mm]	disk diffusion zone diameter (S. pneumoniae isolates; EF3030) [mm]	disk diffusion zone diameter (S. pneumoniae isolates; L82016) [mm]	disk diffusion zone diameter (S. pneumoniae isolates; P9) [mm]	disk diffusion zone diameter (S. pneumoniae isolates; P21) [mm]	disk diffusion zone diameter (S. pneumoniae isolates; TIGR4) [mm]	disk diffusion zone diameter (S. pneumoniae isolates; WCH16) [mm]	disk diffusion zone diameter (S. pneumoniae isolates; WCH43) [mm]	disk diffusion zone diameter (S. pneumoniae isolates; WCH46) [mm]	disk diffusion zone diameter (S. pneumoniae isolates; WCH57) [mm]	disk diffusion zone diameter (S. pneumoniae isolates; WCH77) [mm]	disk diffusion zone diameter (S. pneumoniae isolates; WCH86) [mm]	disk diffusion zone diameter (S. pneumoniae isolates; WCH89) [mm]	disk diffusion zone diameter (S. pneumoniae isolates; WCH92) [mm]	disk diffusion zone diameter (S. pneumoniae isolates; WCH137) [mm]	isolates resistant (Kirby-Bauer disc diffusion) ([1]; CA-MRSA (n = 10)) [%]	isolates resistant (Kirby-Bauer disc diffusion) ([1]; HA-MRSA (n = 10)) [%]	isolates resistant (Kirby-Bauer disc diffusion) [1, 3] [%]	Total isolates resistant (Kirby-Bauer disc diffusion) [1] [%]	further results
CO[C@H]1/C=C/O[C@@]2(C)Oc3c(C)c(O)c4c(O)c(c(/C=N/N5CCN(C)CC5)c(O)c4c3C2=O)NC(=O)/C(C)=C\C=C\[C@H](C)[C@H](O)[C@@H](C)[C@@H](O)[C@@H](C)[C@H](OC(C)=O)[C@@H]1C [Rifampicin]	32	28	32	26	27	32	30	30	27	29	38	33	31	32	22	30	0.00	10.00	0.00	3.33	disk diffusion zone diameter (S. pneumoniae isolates; WCH158): 34 mm; disk diffusion zone diameter (S. pneumoniae isolates; WCH184): 32 mm; disk diffusion zone diameter (S. pneumoniae isolates; WCH211): 32 mm; disk diffusion zone diameter (S. pneumoniae isolates; WU2): 31 mm; Total isolates resistant (Kirby-Bauer disc diffusion) ([1]; listed as rifampicin): 3.33%
CO[C@@]1(NC(=O)C2SC(=C(C(N)=O)C(=O)O)S2)C(=O)N2C(C(=O)O)=C(CSc3nnnn3C)CS[C@@H]21 (stereo partly drawn) [Cefotetan]	–	–	–	–	–	–	–	–	–	–	–	–	–	–	–	–	20.00	80.00	0.00	33.33	resistant isolates, number (percentage) ([1]; Unclassified (n = 2), Overall): 2 (100%); resistant isolates, number (percentage) ([1]; mec gene complex A (n = 4), Overall): 4 (100%); resistant isolates, number (percentage) ([1]; mec gene complex A (n = 4), SCCmec type II): 3 (100%); resistant isolates, number (percentage) ([1]; mec gene complex A (n = 4), SCCmec type III): 1 (100%); resistant isolates, number (percentage) ([1]; mec gene complex B (n = 10), Overall): 2 (20%); resistant isolates, number (percentage) ([1]; mec gene complex B (n = 10), SCCmec type I): 1 (50%); resistant isolates, number (percentage) ([1]; mec gene complex B (n = 10), SCCmec type IV): 1 (12.5%); resistant isolates, number (percentage) ([1]; mec gene complex C2 (n = 4), Overall): 2 (50%); resistant isolates, number (percentage) ([1]; mec gene complex C2 (n = 4), SCCmec type V): 2 (50%); MRSP isolates susceptible [2]: 92%
CC1=C(C(=O)O)N2C(=O)[C@@H](NC(=O)[C@H](N)c3ccccc3)[C@H]2SC1 [Cephalexin]	–	–	–	–	–	–	–	–	–	–	–	–	–	–	–	–	20.00	80.00	10.00	40.00	–
CCC[C@@H]1C[C@@H](C(=O)N[C@@H]([C@H]2O[C@H](SC)[C@H](O)[C@@H](O)[C@H]2O)[C@H](C)Cl)N(C)C1 [Clindamycin]	34	27	26	32	31	25	28	28	22	30	34	28	30	27	24	26	50.00	50.00	30.00	43.33	disk diffusion zone diameter (S. pneumoniae isolates; WCH158): 32 mm; disk diffusion zone diameter (S. pneumoniae isolates; WCH184): 10 mm; disk diffusion susceptibility category (S. pneumoniae isolates; WCH184 (Table 18)): R; disk diffusion zone diameter (S. pneumoniae isolates; WCH211): 27 mm; disk diffusion zone diameter (S. pneumoniae isolates; WU2): 27 mm; Total isolates resistant (Kirby-Bauer disc diffusion) ([1]; listed as clindamycin): 43.33%
